Tests used:
Test in all cases: relative viability (nuclei count vs DMSO), 5 days (fraction); higher = more cells survive
TPCA-1 + Palbociclib = compound: C1=CC(=CC=C1C2=CC(=C(S2)NC(=O)N)C(=O)N)F [TPCA-1] + CC(=O)c1c(C)c2cnc(Nc3ccc(N4CCNCC4)cn3)nc2n(C2CCCC2)c1=O [Palbociclib] (partner 0.5 µM)
How it was run: (§1)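 Dosing by pin tool came one day after lung cancer cell lines were seeded in 1536-well plates, using either one drug or a fixed anchor-drug dose plus five library-drug doses (not always all listed) in √10 steps. After 5 days, nuclei were counted on 4× images. Relative viability is treated-well nuclei count divided by vehicle-well nuclei count, and values are medians of duplicate plates.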

[1] = compound: C1/C(=C\C2=CC=CS2)/C(=O)/C(=C/C3=CC=CS3)/C1 + Cc1nc(Nc2ncc(C(=O)Nc3c(C)cccc3Cl)s2)cc(N2CCN(CCO)CC2)n1 [Dasatinib] (partner 0.075 µM)
How it was run: as §1

TPCA-1 + Navitoclax = compound: C1=CC(=CC=C1C2=CC(=C(S2)NC(=O)N)C(=O)N)F [TPCA-1] + CC1(C)CCC(c2ccc(Cl)cc2)=C(CN2CCN(c3ccc(C(=O)NS(=O)(=O)c4ccc(N[C@H](CCN5CCOCC5)CSc5ccccc5)c(S(=O)(=O)C(F)(F)F)c4)cc3)CC2)C1 [Navitoclax] (partner 0.5 µM)
How it was run: as §1

TPCA-1 + Pemetrexed = compound: C1=CC(=CC=C1C2=CC(=C(S2)NC(=O)N)C(=O)N)F [TPCA-1] + Nc1nc2[nH]cc(CCc3ccc(C(=O)N[C@@H](CCC(=O)O)C(=O)O)cc3)c2c(=O)[nH]1 [Pemetrexed] (partner 0.2 µM)
How it was run: as §1

Row | Cell Line | relative viability (TPCA-1 + Palbociclib; first compound 0.04 µM) | relative viability (TPCA-1 + Palbociclib; first compound 0.1265 µM) | relative viability (TPCA-1 + Palbociclib; first compound 0.4 µM) | relative viability (TPCA-1 + Palbociclib; first compound 1.265 µM) | relative viability (TPCA-1 + Palbociclib; first compound 4 µM) | relative viability ([1]; first compound 0.2 µM) | relative viability ([1]; first compound 0.6325 µM) | relative viability ([1]; first compound 2 µM) | relative viability ([1]; first compound 6.325 µM) | relative viability ([1]; first compound 20 µM) | relative viability (TPCA-1 + Navitoclax; first compound 0.04 µM) | relative viability (TPCA-1 + Navitoclax; first compound 0.1265 µM) | relative viability (TPCA-1 + Navitoclax; first compound 0.4 µM) | relative viability (TPCA-1 + Navitoclax; first compound 1.265 µM) | relative viability (TPCA-1 + Navitoclax; first compound 4 µM) | relative viability (TPCA-1 + Pemetrexed; first compound 0.04 µM) | relative viability (TPCA-1 + Pemetrexed; first compound 0.1265 µM) | relative viability (TPCA-1 + Pemetrexed; first compound 0.4 µM) | relative viability (TPCA-1 + Pemetrexed; first compound 1.265 µM) | relative viability (TPCA-1 + Pemetrexed; first compound 4 µM)
1 | HCC-15 | 0.835 | 0.698 | 0.801 | 0.694 | 0.472 | 0.692 | 0.61 | 0.65 | 0.489 | 0.586 | 0.825 | 0.64 | 0.682 | 0.686 | 0.519 | 0.222 | 0.227 | 0.224 | 0.238 | 0.22
2 | HCC-78 | 0.464 | 0.455 | 0.492 | 0.48 | 0.387 | 0.332 | 0.461 | 0.537 | 0.413 | 0.291 | 0.973 | 0.653 | 0.726 | 0.652 | 0.582 | 0.919 | 0.911 | 0.932 | 0.885 | 0.9
3 | HCC-366 |  | 0.346 | 0.397 | 0.328 | 0.192 | 0.638 | 0.592 | 0.751 | 0.608 | 0.474 | 1.01 | 0.942 | 1.14 | 0.952 | 1 |  | 0.17 | 0.155 | 0.116 | 0.145
4 | HCC-827 | 0.487 | 0.407 | 0.521 | 0.413 | 0.278 | 0.405 | 0.366 | 0.31 | 0.265 | 0.31 | 0.996 | 1.04 | 1.04 | 1 | 0.683 | 0.252 | 0.267 | 0.281 | 0.256 | 0.276
5 | HOP-62 | 0.483 | 0.458 | 0.497 | 0.418 | 0.466 | 0.678 | 0.683 | 0.729 | 0.651 | 0.61 | 0.982 | 1.06 | 1.02 | 0.899 | 0.809 | 0.269 | 0.346 | 0.299 | 0.271 | 0.216
6 | LC-2-ad | 0.467 | 0.465 | 0.49 | 0.489 | 0.421 | 0.667 | 0.59 | 0.655 | 0.482 | 0.626 | 0.361 | 0.377 | 0.414 | 0.357 | 0.11 | 0.262 | 0.299 | 0.27 | 0.283 | 0.206
7 | LCLC-97TM1 | 0.231 | 0.2 | 0.199 | 0.232 | 0.206 | 0.896 | 0.776 | 0.791 | 0.672 | 0.811 | 0.394 | 0.494 | 0.446 | 0.259 | 0.238 | 0.17 | 0.186 | 0.163 | 0.153 | 0.154
8 | LK-2 | 0.726 |  | 0.725 | 0.697 | 0.427 | 0.359 | 0.443 | 0.345 | 0.29 | 0.346 | 0.868 | 0.664 | 0.955 | 0.778 | 0.71 | 0.268 |  | 0.253 | 0.232 | 0.141

Source: the supplement of paper PMC10307832
